Data published in patent US7098208B2, “Inhibitors of Akt activity” (Merck & Co., Inc., priority 2001, dated 2006).

Test system: PKC (mix of isoforms)
Test: PKC Assay (counter screen)
Type: biochemical
Details: myelin basic protein substrate; read-out: Counter screens IC50 (μM) PKC
Method: Each PKC assay consists of the following components:
Final assay concentrations were as follows: 0.25 mM EGTA, 0.4 mM CaCl, 20 mM Tris pH 7.5, 10 mM MgCl, 1 mM 2-mercaptoethanol, 0.32 mg/ml phosphatidylserine, 0.032 mg/ml diacylglycerol, 10 μM ^33P-ATP, 70 μg/ml MBP, 10 ng/ml PKC, 0.1 mg/ml BSA.
Assays are performed using 96 deep well assay plates. In each assay well 10 μl of solvent control or appropriate inhibitor dilution with 5 μl ^33P-ATP (components #5 and #3) were premixed. In a separate tube, a mixture containing equal volumes of components #1, #2, #4, and #6 was prepared. The assay reaction was initiated by adding 35 μL of the components #1, #2, #4, and #6 mixture to wells containing ^33P-ATP and inhibitor. The liquid in the assay wells was thoroughly mixed and the assay reactions incubated for 20 minutes at room temperature. The reactions were stopped by adding 100 mM EDTA (50 μl) and 100 mM sodium pyrophosphate (50 μl) and mixing. Phosphorylated MBP was collected on PVDF membranes in 96 well filter plates and quantitated by scintillation counting.

Row | SMILES | IC50
1 | CN(C)CC(C)(C)CNc1nn2c(-c3ccccc3)nnc2cc1C1CCC1 [Compound 1, N′-(7-Cyclobutyl-3-phenyl-[1,2,4]triazolo[4,3-b]pyridazin-6-yl)-2,2,N,N-tetramethyl-propane-1,3-diamine] | > 40 µM
2 | CN(C)CC(C)(C)CNc1nn2c(-c3cc(F)cc(F)c3)nnc2cc1C1CCC1 [Compound 2, N′-(7-Cyclobutyl-3-(3,5-difluoro-phenyl)-[1,2,4]triazolo[4,3-b]pyridazin-6-yl)-2,2,N,N-tetramethyl-propane-1,3-diamine] | > 40 µM
3 | CN(C)CC(C)(C)CNc1nn2c(-c3ccc(F)c(F)c3)nnc2cc1C1CCC1 [Compound 3, N′-(7-Cyclobutyl-3-(3,4-difluoro-phenyl)-[1,2,4]triazolo[4,3-b]pyridazin-6-yl)-2,2,N,N-tetramethyl-propane-1,3-diamine] | > 40 µM
4 | CN(C)CC(C)(C)CNc1nn2c(-c3ccc(F)cc3)nnc2cc1C1CCC1 [Compound 4, N′-(7-Cyclobutyl-3-(4-fluoro-phenyl)-[1,2,4]triazolo[4,3-b]pyridazin-6-yl)-2,2,N,N-tetramethyl-propane-1,3-diamine] | > 40 µM
5 | CN(C)CC(C)(C)CNc1nn2c(-c3cccc(F)c3)nnc2cc1C1CCC1 [Compound 5, N′-(7-Cyclobutyl-3-(3-fluoro-phenyl)-[1,2,4]triazolo[4,3-b]pyridazin-6-yl)-2,2,N,N-tetramethyl-propane-1,3-diamine] | > 40 µM
